This note sets out measurements from patent US20230219963A1, “PYRROLO[2,3-D]PYRIMIDINE DERIVATIVES” (Pfizer Inc., priority 2020, published 2023).

In general, IC50 refers to the concentration that gives 50% inhibition.

Common to all, as to assay type: cell-based
One assay deals with TSLP induced pSTAT5. The experiment in a line: TSLP-induced pSTAT5 in human whole blood (CD3+ cells). Particulars: JAK1/JAK2, read-out: TSLP induced pSTAT5, cellular potency IC50. On the procedure: (§1) Human whole blood was collected from healthy donors via vein puncture into Vacutainer collection tubes containing sodium heparin in accordance with Pfizer protocols (Protocol No. GOHW RDP-01) approved by the Shulman Institutional Review Board. Blood was warmed to 37° C. priorto use. Human whole blood was aliquoted (90 μL/well) in 96-well, deep-well, V-bottom plates and treated with compounds (5 μL/well) at different concentrations up to 60 μM (0.2% DMSO final) at 37° C. for 60 minutes. This was followed by a challenge with IFNα (5000 U/mL), IFNγ (100 ng/mL), IL-6 (50 ng/mL), IL-10 (30 ng/mL), IL-12 (30 ng/mL), IL-15 (30 ng/mL), IL-21 (50 ng/mL), IL-23 (25 ng/mL), IL-27 (1000 ng/mL), EPO (2 U/mL), TSLP (50 ng/mL) or PBS and incubated for 15 minutes. Anti-cell surface antibodies were added 15 minutes prior to cytokine stimulation; anti-CD3-BV421 (0.5 μL/well) to IL-6-treated and TSLP-treated samples and anti-CD14-BV421 (0.5 μL/well) to IFNγ-treated samples. Samples were treated with warm 1×Lyse/Fix buffer (700 μL/well) to terminate activation and further incubated at 37° C. for 20 minutes to lyse red blood cells. Plates were centrifuged at 300×g for 5 minutes, supernatant was aspirated, and cells were washed with 800 μL/well of staining buffer (D-PBS containing 0.1% FBS and 0.01% sodium azide). Washed cell pellets were resuspended in 350 μL/well of prechilled 90% methanol and incubated at 4° C. for 30 minutes. After the removal of 90% methanol, cells were washed once with staining buffer. […]
(§2) After overnight incubation at 4° C., anti-pSTAT stained samples were transferred into 96-well polypropylene U-bottom plates and flow cytometric analysis was performed on a LSR Fortessa™ equipped with a HTS plate loader. […] Background fluorescence was defined using unstimulated cells and a gate was placed at the foot of the peak to include ˜0.5% gated population. […]

In the next assay the test system is IL-4 induced pSTAT6. The experiment in a line: IL-4-induced pSTAT6 in human keratinocytes. Particulars: Keratinocyte, JAK1/JAK2, read-out: IL-4 induced pSTAT6, cellular potency IC50. On the procedure: as §1, §2
The next assay deals with IL-13 induced pSTAT6. Briefly: IL-13-induced pSTAT6 in human keratinocytes. Particulars: Keratinocyte, JAK1/JAK2, read-out: IL-13 induced pSTAT6, cellular potency IC50. On the procedure:
as §1, §2

In a further assay the test system is IL-31 induced pSTAT3. Briefly: IL-31-induced pSTAT3 in IFNγ-primed THP-1 cells. Particulars: Homo sapiens, JAK1/JAK2, read-out: IL-31 induced pSTAT3, cellular potency IC50. On the procedure:
THP-1 cells were maintained in RPMI 1640 medium containing 10% FBS, 50 μM 2 mercaptoethanol, 50 U/mL penicillin, 50 µg/mL streptomycin and 2 mM L-glutamine. THP 1 cells were treated with IFNγ (20 ng/mL) for 18 hours. IFNγ primed THP-1 cells were resuspended in fresh RPMI 1640 medium, treated with compounds (0.0003 to 20 μM) for 60 minutes, followed by stimulation with IL-31 (1 μg/mL) for additional 10 minutes. Cells were then fixed by 2% paraformaldehyde and permeabilized by 90% methanol. Fixed and permeabilized cells were stained with AlexaFluor647™ labeled anti-pSTAT3 antibody (1 to 150 dilution).
After overnight incubation at 4° C., anti-pSTAT stained samples were transferred into 96-well polypropylene U-bottom plates and flow cytometric analysis was performed on a LSR Fortessa™ equipped with a HTS plate loader. For human whole blood samples, lymphocyte population was gated for pSTAT histogram analysis for IFNα, IL-10, IL-12, IL-15, IL-21, IL-23, and IL-27-treated samples; CD14^+ cells for IFNγ-treated samples; CD3^+ cells for IL-6 and TSLP-treated samples; all events (entire populations) for EPO-treated samples. Entire populations of keratinocytes and THP-1 cells were gated for the IL-4, IL-13, IL-22 and IL-31 assays. Background fluorescence was defined using unstimulated cells and a gate was placed at the foot of the peak to include ˜0.5% gated population. Histogram statistical analysis was performed using FACSDiva version 8.0. Relative fluorescence unit, which measures the level of pSTAT, was calculated by multiplying the percent positive population and its mean fluorescence. Inhibition curves and half maximal inhibitory concentration (IC50) values were determined using Prism™ software (Version 8) or the Activity Base data analysis software (ID Business Solutions).

In a further assay the test system is IL-22 induced pSTAT3. The experiment in a line: IL-22-induced pSTAT3 in human keratinocytes. As to conditions: Keratinocyte, JAK1/TYK2, read-out: IL-22 induced pSTAT3, cellular potency IC50.

Consider `C[C@H](O)CS(=O)(=O)N[C@H]1C[C@@H](N(C)c2ncnc3[nH]ccc23)C1` (single isomer, unassigned) [IA (M2)], for which the IC50 came out at 0.271 µM in the assay on TSLP induced pSTAT5; 0.134 µM in the assay with IL-4 induced pSTAT6; 0.0841 µM with IL-13 induced pSTAT6; 0.056 µM with IL-31 induced pSTAT3; 0.198 µM with IL-22 induced pSTAT3.
The matching figures for `CN(c1ncnc2[nH]ccc12)[C@H]1C[C@@H](NS(=O)(=O)CCCO)C1` [IB (M1), 3-Hydroxy-N-(cis-3-(methyl(7H-pyrrolo[2,3-d]pyrimidin-4-yl)amino)cyclobutyl)propane-1-sulfonamide]: 0.785 µM, 0.433 µM, 0.236 µM, 0.0796 µM and 0.703 µM.
